The structures appear in SMILES notation.

T1 sequence (Q9Y2T5 whole entry): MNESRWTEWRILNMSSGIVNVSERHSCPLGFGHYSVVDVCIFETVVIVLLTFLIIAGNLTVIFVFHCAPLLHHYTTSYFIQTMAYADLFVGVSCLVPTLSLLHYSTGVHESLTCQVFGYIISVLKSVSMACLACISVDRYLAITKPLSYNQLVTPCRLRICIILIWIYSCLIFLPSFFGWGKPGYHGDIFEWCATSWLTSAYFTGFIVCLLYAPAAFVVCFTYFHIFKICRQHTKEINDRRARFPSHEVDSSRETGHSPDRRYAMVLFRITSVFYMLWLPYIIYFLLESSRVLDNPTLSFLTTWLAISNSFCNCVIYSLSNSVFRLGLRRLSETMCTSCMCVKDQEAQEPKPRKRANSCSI

The assay has as its target T1, human GPR52 (Homo sapiens, UniProt Q9Y2T5).
T1 construct: expressed in transfected cells; host or cells: CHO(dhfr-) cells
The assay can be described thus: Increase of intracellular cAMP concentration in human GPR52-expressing CHO cell (AlphaScreen cAMP assay). It counts as cell-based. To be noted: 1 μM test compound, human GPR52-expressing CHO(dhfr-) cells, 37° C. for 30 min; intracellular cAMP with 1 μM Reference Example 124 = 100%, DMSO = 0%. On the procedure: Increase of Intracellular cAMP Concentration in Human GPR52-Expressing CHO Cell
Using OptiPlate-384 (PerkinElmer Inc.), 1×10^4 human GPR52-expressing CHO(dhfr-) cells were incubated together with 1 μM of a test compound in an assay buffer (30 μL, HBSS (containing Ca^2+ and Mg^2+), 0.5% BSA, 100 μm IBMX, 100 μm Ro20-1724, 5 mM HEPES (pH 7.55)) at 37° C. for 30 min. Thereafter, according to the protocol of AlphaScreen cAMP Assay Kit (PerkinElmer Inc.), the intracellular cAMP concentration was measured by EnVision (PerkinElmer Inc.). The GPR52 agonist activity was calculated, assuming the intracellular cAMP concentration in the presence of 1 μM 3-(6-(2-(3,4-dimethoxyphenyl)ethoxy)pyridin-2-yl)-N-(2-pyrrolidin-1-ylethyl)benzamide (Reference Example 124) to be 100% and assuming the intracellular cAMP concentration when DMSO was added instead of the test compound to be 0%.
Background: Bead proximity is the source of the signal in Alpha formats.
`O=C(NCCCO)c1cccc(-c2ccc3c(n2)N(Cc2ccc(Cl)cc2Cl)CC3)c1` [Example 31, 3-[1-(2,4-dichlorobenzyl)-2,3-dihydro-1H-pyrrolo[2,3-b]pyridin-6-yl]-N-(3-hydroxypropyl)benzamide]: the “GPR52 agonist activity (%)” value turned out to be 62%.
For `O=C(NCCO)c1cccc(-c2ccc3c(c2)C(c2ccc(Cl)cc2Cl)CC3)c1` (centres unmarked) [Example 64, 3-[3-(2,4-dichlorophenyl)-2,3-dihydro-1H-inden-5-yl]-N-(2-hydroxyethyl)benzamide], the “GPR52 agonist activity (%)” value came to 84%.
In the case of `N#CCCNC(=O)c1cccc(-c2ccc3c(c2)N(Cc2ccc(Cl)cc2Cl)CC3)c1` [Example 13, N-(2-cyanoethyl)-3-[1-(2,4-dichlorobenzyl)-2,3-dihydro-1H-indol-6-yl]benzamide] it was 60%; in that of `N#CCCNC(=O)c1cccc(-c2ccc3c(c2)C(c2ccc(Cl)cc2Cl)CC3)c1` (single isomer, unassigned; (-)) [Example 62, (−)-N-(2-cyanoethyl)-3-[3-(2,4-dichlorophenyl)-2,3-dihydro-1H-inden-5-yl]benzamide], 81%; in that of `COc1ccc(CCn2cnc3ccc(-c4cccc(C(=O)NCCN5CCCC5)c4)nc32)cc1OC` [Example 45, 3-[3-[2-(3,4-dimethoxyphenyl)ethyl]-3H-imidazo[4,5-b]pyridin-5-yl]-N-(2-pyrrolidin-1-ylethyl)benzamide], 79%.
On to `O=C(NCCO)c1cccc(-c2ccc3ccn(-c4ccc(Cl)cc4Cl)c3n2)c1` [Example 33, 3-[1-(2,4-dichlorophenyl)-1H-pyrrolo[2,3-b]pyridin-6-yl]-N-(2-hydroxyethyl)benzamide], for which the “GPR52 agonist activity (%)” value amounted to 61%.
Regarding `C[S+]([O-])CCNC(=O)c1cccc(-c2ccc3c(c2)C(Oc2ccc(Cl)cc2Cl)CC3)c1` (centres unmarked) [Example 76, 3-[3-(2,4-dichlorophenoxy)-2,3-dihydro-1H-inden-5-yl]-N-[2-(methylsulfinyl)ethyl]benzamide], the “GPR52 agonist activity (%)” value stood at 80%.
Regarding `CN(C)CCNC(=O)c1cccc(-c2ccc3c(c2)N(Cc2ccc(Cl)cc2Cl)CC3)c1` [Example 12, 3-[1-(2,4-dichlorobenzyl)-2,3-dihydro-1H-indol-6-yl]-N-[2-(dimethylamino)ethyl]benzamide], the “GPR52 agonist activity (%)” value was 89%.
With `CN(C)CCNC(=O)c1cccc(-c2ccc3c(c2)N(c2ccc(Cl)cc2Cl)CC3)c1` [Example 1, 3-[1-(2,4-dichlorophenyl)-2,3-dihydro-1H-indol-6-yl]-N-[2-(dimethylamino)ethyl]benzamide], the “GPR52 agonist activity (%)” value worked out at 87%.
With `O=C(NCCO)c1cccc(-c2ccc3c(c2)N(Cc2cc(Cl)cc(Cl)c2)CC3)c1` [Example 16, 3-[1-(3,5-dichlorobenzyl)-2,3-dihydro-1H-indol-6-yl]-N-(2-hydroxyethyl)benzamide] the figure was 84%; with `O=C(Nc1nccs1)c1cccc(-c2ccc3c(c2)C(Oc2ccc(Cl)cc2Cl)CC3)c1` (centres unmarked) [Example 82, 3-[3-(2,4-dichlorophenoxy)-2,3-dihydro-1H-inden-5-yl]-N-1,3-thiazol-2-ylbenzamide], 67%.
With `NC(=O)CNC(=O)c1cccc(-c2ccc3c(c2)C(Oc2ccc(Cl)cc2Cl)CC3)c1` (centres unmarked) [Example 83, N-(2-amino-2-oxoethyl)-3-[3-(2,4-dichlorophenoxy)-2,3-dihydro-1H-inden-5-yl]benzamide] the figure was 70%; with `N#CCCNC(=O)c1cccc(-c2ccc3c(c2)N(c2cccc(Cl)c2Cl)CC3)c1` [Example 10, N-(2-cyanoethyl)-3-[1-(2,3-dichlorophenyl)-2,3-dihydro-1H-indol-6-yl]benzamide], 65%.
With `O=C(NC1CC1)c1cccc(-c2ccc3c(c2)C(Oc2ccc(Cl)cc2Cl)CC3)c1` (centres unmarked) [Example 78, N-cyclopropyl-3-[3-(2,4-dichlorophenoxy)-2,3-dihydro-1H-inden-5-yl]benzamide] the figure was 59%.
